Source: patent publication US20070128217A1 (priority 2003, published 2007)

Key:
[1] = system: control sera (pooled serum of ten healthy LUMC hospital workers; commercial negative donor pooled serum from the Dutch bloodbank); assay type: binding, human; parameters: Binding of Control serum LUMC to linear peptides / Binding of Control serum Blood-bank to linear peptides / Binding of Control serum LUMC to looped peptides / Binding of Control Serum Blood-Bank to Looped peptides / Binding of Control serum LUMC to linear peptides of the protein M of SARS-CoV Urbani / Binding of Control serum Blood-bank to linear peptides of the protein M of SARS-CoV Urbani / Binding of Control serum LUMC to looped peptides of the protein M of SARS-CoV Urbani / Binding of Control Serum Blood-Bank to Looped peptides of the protein M of SARS-CoV Urbani: unit not given here
[2] = system: rabbit serum obtained by immunizing a rabbit with the SARS-CoV strain Frankfurt 1; assay type: binding; parameters: Binding of a rabbit serum to linear peptides / Binding of a rabbit serum to looped peptides / Rabbit serum linear peptides / Rabbit serum looped peptides / Binding of a rabbit serum to linear peptides of protein N of SARS-CoV Urbani (Rabbit serum linear peptides) / Binding of a rabbit serum to looped/cyclic peptides of protein N of SARS-CoV Urbani (Rabbit serum looped peptides): unit not given here

Sequence | Binding of Control Serum Blood-Bank to Looped peptides [1] | Binding of Control serum Blood-bank to linear peptides [1] | Binding of Control serum LUMC to linear peptides [1] | Binding of Control serum LUMC to looped peptides [1] | Binding of a rabbit serum to linear peptides [2] | Binding of a rabbit serum to looped peptides [2] | Rabbit serum linear peptides [2] | Rabbit serum looped peptides [2] | Binding of Control Serum Blood-Bank to Looped peptides of the protein X3 of SARS-CoV Urbani [1] | Binding of Control serum Blood-bank to linear peptides of the protein X3 of SARS-CoV Urbani [1] | Binding of Control serum LUMC to linear peptides of the protein X3 of SARS-CoV Urbani [1] | Binding of Control serum LUMC to looped peptides of the protein X3 of SARS-CoV Urbani [1] | Recognition of the peptide by the rabbit serum [2] | Binding of Control Serum Blood-Bank to Looped peptides of the protein M of SARS-CoV Urbani [1] | Binding of Control serum Blood-bank to linear peptides of the protein M of SARS-CoV Urbani [1] | Binding of Control serum LUMC to linear peptides of the protein M of SARS-CoV Urbani [1] | Binding of Control serum LUMC to looped peptides of the protein M of SARS-CoV Urbani [1]
DPIYDEPTTTTSVPL | 0.8 | 0.5 | 0.5 | 0.7 | 0.1 | 0.5 |  |  |  |  |  |  |  |  |  |  | 
DRHSGVKDYVVVHGY | 0.6 | 0.7 | 0.7 | 0.4 | 0.1 | 0.5 |  |  |  |  |  |  |  |  |  |  | 
DYCIPYNSVTDTIVV | 0.7 | 0.7 | 0.6 | 0.9 | 0.1 | 0.5 |  |  |  |  |  |  |  |  |  |  | 
ECVRGTTVLLKEPCP | 0.9 | 0.9 | 0.7 | 0.8 |  |  | 0.6 | 0.4 |  |  |  |  |  |  |  |  | 
EGHQTAAFRDVLVVL | 0.9 | 0.7 | 0.9 | 1.6 |  |  | 0.3 | 0.6 |  |  |  |  |  |  |  |  | 
EILIIIMRTFRIAIW |  |  |  |  |  |  | 0.5 | 0.3 | 0.6 | 0.8 | 0.5 | 0.6 |  |  |  |  | 
ELYHYQECVRGTTVL | 0.7 | 0.7 | 0.6 | 0.7 |  |  | 0.7 | 0.7 |  |  |  |  |  |  |  |  | 
FFIFNKLVKDPPNVQ | 0.5 | 0.6 | 0.7 | 0.6 | 0.1 | 0.5 |  |  |  |  |  |  |  |  |  |  | 
FIFNKLVKDPPNVQI | 0.8 | 0.8 | 0.8 | 0.7 | 0.1 | 0.7 |  |  |  |  |  |  |  |  |  |  | 
FKPLTKKNYSELDDE |  |  |  |  |  |  | 0.5 | 0.5 | 0.8 | 0.8 | 0.8 | 0.8 |  |  |  |  | 
FQHQNSKKTTKLVVI | 0.4 | 0.5 | 0.7 | 0.5 |  |  |  |  |  |  |  |  | recognized |  |  |  | 
FTLGSITAQPVKIDN | 1.6 | 0.5 | 0.6 | 1.2 | 0.7 | 0.8 |  |  |  |  |  |  |  |  |  |  | 
FVCWHTHNYDYCIPY | 0.5 | 0.6 | 0.7 | 0.6 | 0.1 | 0.7 |  |  |  |  |  |  |  |  |  |  | 
GASQRVGTDSGFAAY |  |  |  |  |  |  | 0.1 | 0.1 |  |  |  |  |  | 0.7 | 0.9 | 0.9 | 0.7
GGYSEDRHSGVKDYV | 0.4 | 0.6 | 0.4 | 0.5 | 0.1 | 0.2 |  |  |  |  |  |  |  |  |  |  | 
GHQTAAFRDVLVVLN | 0.6 | 0.5 | 0.8 | 0.6 |  |  | 0.1 | 0.5 |  |  |  |  |  |  |  |  | 

Sequence | Binding of Control Serum Blood-Bank to Looped peptides [1] | Binding of Control serum Blood-bank to linear peptides [1] | Binding of Control serum LUMC to linear peptides [1] | Binding of Control serum LUMC to looped peptides [1] | Binding of a rabbit serum to linear peptides [2] | Binding of a rabbit serum to looped peptides [2] | Rabbit serum linear peptides [2] | Rabbit serum looped peptides [2] | Binding of Control Serum Blood-Bank to Looped peptides of the protein X3 of SARS-CoV Urbani [1] | Binding of Control serum Blood-bank to linear peptides of the protein X3 of SARS-CoV Urbani [1] | Binding of Control serum LUMC to linear peptides of the protein X3 of SARS-CoV Urbani [1] | Binding of Control serum LUMC to looped peptides of the protein X3 of SARS-CoV Urbani [1] | Recognition of the peptide by the rabbit serum [2] | Binding of Control Serum Blood-Bank to Looped peptides of the protein M of SARS-CoV Urbani [1] | Binding of Control serum Blood-bank to linear peptides of the protein M of SARS-CoV Urbani [1] | Binding of Control serum LUMC to linear peptides of the protein M of SARS-CoV Urbani [1] | Binding of Control serum LUMC to looped peptides of the protein M of SARS-CoV Urbani [1]
GIAIAMACIVGLMWL |  |  |  |  |  |  | 0.3 | 0.1 |  |  |  |  |  | 0.7 | 0.8 | 0.5 | 0.8
GISTPKLKEDYQIGG | 0.4 | 0.5 | 0.4 | 0.4 | 0.1 | 0.3 |  |  |  |  |  |  |  |  |  |  | 
GNYKLNTDHAGSNDN |  |  |  |  |  |  | 0.0 | 0.2 |  |  |  |  |  | 0.6 | 0.6 | 0.7 | 0.7
GSITAQPVKIDNASP | 0.6 | 0.6 | 0.6 | 0.5 | 0.2 | 0.4 |  |  |  |  |  |  |  |  |  |  | 
GSSGVANPAMDPIYD | 0.4 | 0.6 | 0.7 | 0.4 | 0.1 | 0.5 |  |  |  |  |  |  |  |  |  |  | 
GTQVLKTMSLYMAIS | 0.7 | 0.6 | 0.6 | 0.6 | 0.2 | 0.4 |  |  |  |  |  |  |  |  |  |  | 
GTTVLLKEPCPSGTY | 0.7 | 0.7 | 0.7 | 0.8 |  |  | 0.4 | 0.4 |  |  |  |  |  |  |  |  | 
GTYEGNSPFHPLADN | 0.9 | 0.7 | 0.8 | 0.7 |  |  | 0.6 | 0.5 |  |  |  |  |  |  |  |  | 
GVKDYVVVHGYFTEV | 1.1 | 0.5 | 0.7 | 1.3 | 0.1 | 0.7 |  |  |  |  |  |  |  |  |  |  | 
HNYDYCIPYNSVTDT | 0.7 | 0.3 | 0.4 | 0.6 | 0.1 | 0.5 |  |  |  |  |  |  |  |  |  |  | 
HPLADNKFALTCTST | 0.8 | 0.7 | 0.6 | 0.9 |  |  | 0.5 | 0.1 |  |  |  |  |  |  |  |  | 
HSGVKDYVVVHGYFT | 2.2 | 0.7 | 0.8 | 2.3 | 0.1 | 0.6 |  |  |  |  |  |  |  |  |  |  | 
HTMVQTCTPNVTINC | 0.8 | 0.9 | 0.7 | 0.6 |  |  | 0.4 | 0.2 |  |  |  |  |  |  |  |  | 
IGGYSEDRHSGVKDY | 0.7 | 0.4 | 0.5 | 0.6 | 0.1 | 0.6 |  |  |  |  |  |  |  |  |  |  | 
IGNYKLNTDHAGSND |  |  |  |  |  |  | 0.5 | 0.0 |  |  |  |  |  | 0.7 | 0.5 | 0.3 | 0.8
